Like-named read-outs stand apart in the source and are kept apart here.
Molecular target: T1, human mGlu2 receptor (Homo sapiens, UniProt Q14416)
T1 construct: expressed in transfected cells; host or cells: CHO cells
Experiment: [35S]GTPγS binding assay, mGluR2 PAM
Assay type: biochemical
Settings: for Emax / GTPγS-hmGluR2 PAM Emax: EC20 glutamate; for EC50 / GTPγS-hmGluR2 PAM pEC50: in presence of EC20 glutamate; for EC50: read-out: GTPγS-hmGluR2 PAM pEC50 (converted)
Protocol: The [^35S]GTPγS binding assay is a functional membrane-based assay used to study G-protein coupled receptor (GPCR) function whereby incorporation of a non-hydrolysable form of GTP, [^35S]GTPγS (guanosine 5′-triphosphate, labelled with […] ^35S), is measured.
Cells were then collected by scraping in PBS and cell suspension was centrifuged (10 min at 4000 RPM in benchtop centrifuge). Supernatant was discarded and pellet gently resuspended in 50 mM Tris-HCl, pH 7.4 by mixing with a vortex and pipetting up and down. The suspension was centrifuged at 16,000 RPM (Sorvall RC-5C plus rotor SS-34) for 10 minutes and the supernatant discarded. The pellet was homogenized in 5 mM Tris-HCl, pH 7.4 using an ultra-turrax homogenizer and centrifuged again (18,000 RPM, 20 min, 4° C.). The final pellet was resuspended in 50 mM Tris-HCl, pH 7.4 and stored at-80° C. in appropriate aliquots before use. Protein concentration was determined by the Bradford method (Bio-Rad, USA) with bovine serum albumin as standard.
Measurement of mGluR2 positive allosteric modulatory activity of test compounds was performed as follows. Test compounds and glutamate were diluted in assay buffer containing 10 mM HEPES acid, 10 mM HEPES salt, pH 7.4, 100 mM NaCl, 3 mM MgCl2 and 10 μM GDP. Human mGlu2 receptor-containing membranes were thawed on ice and diluted in assay buffer supplemented with 14 μg/ml saponin. Membranes were pre-incubated with compound alone or together with a predefined (˜EC20) concentration of glutamate (PAM assay) for 30 min at 30° C. After addition of [^35S] GTPγS (f.c. 0.1 nM), assay mixtures were shaken briefly and further incubated to allow [^35S] GTPγS incorporation on activation (30 minutes, 30° C.). Final assay mixtures contained 7 μg of membrane protein in 10 mM HEPES acid, 10 mM HEPES salt, pH 7.4, 100 mM NaCl, 3 mM MgCl2, 10 µM GDP and 2 μg/ml saponin. Total reaction volume was 200 μl. Reactions were terminated by rapid filtration through Unifilter-96 GF/B plates (Perkin Elmer, Massachusetts, USA) using a 96-well filtermate universal harvester. Filters were washed 6 times with ice-cold 10 mM NaH2PO4/10 mM Na2HPO4, pH 7.4. Filters were then air-dried, and 40 μl of liquid scintillation cocktail (Microscint-O) was added to each well. Membrane-bound radioactivity was counted in a Microplate Scintillation and Luminescence Counter from Perkin Elmer.
The concentration-response curves of representative compounds of the present invention-obtained in the presence of EC20 of mGluR2 agonist glutamate to determine positive allosteric modulation (PAM)—were generated using the Lexis software interface (developed at J&J). Data were calculated as % of the control glutamate response, defined as the maximal response that is generated upon addition of glutamate alone. Sigmoid concentration-response curves plotting these percentages versus the log concentration of the test compound were analyzed using non-linear regression analysis. The concentration producing half-maximal effect is then calculated as EC50. The pEC50 values below were calculated as the −log EC50, when the EC50 is expressed in M. Emax is defined as relative maximal effect (i.e. maximal % effect relative to the control glutamate response).

[1] = read-out: GTPγS-hmGluR2 PAM Emax, maximal % effect relative to control glutamate response
[2] = maximal % effect relative to control glutamate response, read-out: GTPγS-hmGluR2 PAM Emax

T1 sequence (Q14416 19-872): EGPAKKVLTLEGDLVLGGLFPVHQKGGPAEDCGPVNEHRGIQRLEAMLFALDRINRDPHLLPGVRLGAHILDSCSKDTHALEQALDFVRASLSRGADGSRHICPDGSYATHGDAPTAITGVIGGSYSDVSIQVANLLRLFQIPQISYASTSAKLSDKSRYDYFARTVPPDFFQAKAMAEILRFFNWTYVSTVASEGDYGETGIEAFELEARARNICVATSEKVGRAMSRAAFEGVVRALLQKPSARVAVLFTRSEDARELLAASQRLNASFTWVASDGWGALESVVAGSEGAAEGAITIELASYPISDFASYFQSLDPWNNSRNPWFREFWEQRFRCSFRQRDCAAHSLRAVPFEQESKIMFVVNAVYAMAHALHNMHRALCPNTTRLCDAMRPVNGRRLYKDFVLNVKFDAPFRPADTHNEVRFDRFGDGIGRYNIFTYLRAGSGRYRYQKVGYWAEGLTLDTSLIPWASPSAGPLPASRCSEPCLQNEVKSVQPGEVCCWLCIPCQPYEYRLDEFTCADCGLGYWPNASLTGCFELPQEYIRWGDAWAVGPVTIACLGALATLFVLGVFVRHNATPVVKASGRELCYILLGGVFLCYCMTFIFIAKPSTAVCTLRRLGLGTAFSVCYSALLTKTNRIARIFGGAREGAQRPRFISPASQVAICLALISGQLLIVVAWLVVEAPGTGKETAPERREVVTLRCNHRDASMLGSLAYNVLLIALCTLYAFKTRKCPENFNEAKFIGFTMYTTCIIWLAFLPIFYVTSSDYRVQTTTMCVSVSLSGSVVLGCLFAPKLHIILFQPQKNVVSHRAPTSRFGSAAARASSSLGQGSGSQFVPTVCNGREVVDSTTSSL

Compound	EC50 [nM]	Emax [2] [%]	also measured
C[C@H](Oc1c(F)cc(F)cc1F)c1ccn2c(CC3CC3)nnc2c1C(F)(F)F [Co. No. 15-b, 3-(Cyclopropylmethyl)-8-(trifluoromethyl)-7-[(1S)-1-(2,4,6-trifluorophenoxy)ethyl][1,2,4]triazolo[4,3-a]pyridine]			Emax [1]: 293%
CC(C)(O)c1ccc(C2CCN(c3ccn(CC4CC4)c(=O)c3C3CC3)CC2)cc1 [Co. No. 9-a]	257	222	
CC1(c2ccc(F)cc2)CCN(Cc2ccn3c(CC4CC4)nnc3c2C(F)(F)F)CC1 [Co. No. 3]			Emax [1]: 212%
COc1cc(F)ccc1O[C@@H](C)c1ccn2c(CC3CC3)nnc2c1C(F)(F)F [Co. No. 12-b, 3-(Cyclopropylmethyl)-7-[(1S)-1-(4-fluoro-2-methoxyphenoxy)ethyl]-8-(trifluoromethyl)[1,2,4]triazolo[4,3-a]pyridine]		178	
FC(F)(F)c1c(N2CCN(c3ncccn3)CC2)ccn2c(CC3CC3)nnc12 [Co. No. 8]	186	360	
CC(Oc1ccc(F)cc1)c1ccn2c(CC3CC3)nnc2c1C(F)(F)F (single isomer, unassigned) [Co. No. 2-b, 3-(Cyclopropylmethyl)-7-[(1*R)-1-(4-fluorophenoxy)ethyl]-8-(trifluoromethyl)[1,2,4]triazolo[4,3-a]pyridine]			GTPγS-hmGluR2 PAM Emax (maximal % effect relative to control glutamate response, listed as 2-b): 228%
C[C@H](Oc1cc(F)ccc1F)c1ccn2c(CC3CC3)nnc2c1C(F)(F)F [Co. No. 10-b, 3-(Cyclopropylmethyl)-7-[(1S)-1-(2,5-difluorophenoxy)ethyl]-8-(trifluoromethyl)[1,2,4]triazolo[4,3-a]pyridine]		218	
C[C@H](Oc1c(F)cccc1F)c1ccn2c(CC3CC3)nnc2c1C(F)(F)F [Co. No. 11-b, 3-(Cyclopropylmethyl)-7-[(1S)-1-(2,6-difluorophenoxy)ethyl]-8-(trifluoromethyl)[1,2,4]triazolo[4,3-a]pyridine]		239	
N#CC1(c2ccccc2)CCN(c2ccn(CC3CC3)c(=O)c2Cl)CC1 [Co. No. 6-a]		255	
C[C@H](Oc1ccc(F)c(F)c1)c1ccn2c(CC3CC3)nnc2c1C(F)(F)F [Co. No. 8-b, 3-(Cyclopropylmethyl)-7-[(1S)-1-(3,4-difluorophenoxy)ethyl]-8-(trifluoromethyl)[1,2,4]triazolo[4,3-a]pyridine]		244	
O=c1c(Br)c(N2CCC(c3ccccc3)CC2)ccn1CC1CC1 [Co. No. 3-a]		231	
CCOCc1nnc2c(C(F)(F)F)c(C(C)Oc3ccc(F)cc3F)ccn12 (single isomer, unassigned) [Co. No. 21-b, 7-[(1*S)-1-(2,4-Difluorophenoxy)ethyl]-3-(ethoxymethyl)-8-(trifluoromethyl)[1,2,4]triazolo[4,3-a]pyridine]			GTPγS-hmGluR2 PAM Emax (maximal % effect relative to control glutamate response, listed as 21-b): 102%
Fc1ccc(N2CCN(Cc3ccn4c(CC5CC5)nnc4c3Cl)CC2)c(F)c1 [Co. No. 5]	550	231	
CC(Oc1ccc(F)cc1)c1ccn2c(CC3CC3)nnc2c1C(F)(F)F (single isomer, unassigned) [Co. No. 3-b, 3-(Cyclopropylmethyl)-7-[(1*S)-1-(4-fluorophenoxy)ethyl]-8-(trifluoromethyl)[1,2,4]triazolo[4,3-a]pyridine]			GTPγS-hmGluR2 PAM Emax (maximal % effect relative to control glutamate response, listed as 3-b): 187%
O=c1c(C(F)(F)F)c(N2CCC(c3ccccc3)CC2)ccn1CC1CC1 [Co. No. 4-a]		269	GTPγS-hmGluR2 PAM pEC50: 6.6
O=c1c(Cl)c(N2CCC(c3ccccc3)CC2)ccn1CC1CC1 [Co. No. 1-a]	166	314	
C[C@H](Oc1cccc(F)c1F)c1ccn2c(CC3CC3)nnc2c1C(F)(F)F [Co. No. 9-b, 3-(Cyclopropylmethyl)-7-[(1S)-1-(2,3-difluorophenoxy)ethyl]-8-(trifluoromethyl)[1,2,4]triazolo[4,3-a]pyridine]		260	
CCOCc1nnc2c(C(F)(F)F)c(C(C)Oc3c(F)cc(F)cc3F)ccn12 (single isomer, unassigned) [Co. No. 22-b, 3-(Ethoxymethyl)-8-(trifluoromethyl)-7-[(1*R)-1-(2,4,6-trifluorophenoxy)ethyl][1,2,4]triazolo[4,3-a]pyridine]			GTPγS-hmGluR2 PAM Emax (maximal % effect relative to control glutamate response, listed as 22-b): 325%
CCCCCn1ccc(N2CCC(c3ccccc3)CC2)c(Cl)c1=O [Co. No. 11-a]		249	GTPγS-hmGluR2 PAM pEC50: 7.11
Fc1ccc(C2CCN(c3ccn4c(CC5CC5)nnc4c3Cl)CC2)c(F)c1 [Co. No. 10]		357	

The next lines start with results.

EC50 [nM]	Emax [2] [%]	Compound	also measured
110	297	CCCCn1ccc(N2CCC(c3ccccc3C(C)(C)O)CC2)c(Cl)c1=O [Co. No. 28-a]	
331	284	CCCCn1ccc(N2CCC(c3ccc(C(C)(C)O)cc3)CC2)c(Cl)c1=O [Co. No. 27-a]	
	227	CCCc1nnc2c(C(F)(F)F)c(C(C)Oc3ccc(F)cc3F)ccn12 (stereo not shown) [Co. No. 30-b, 7-[1-(2,4-Difluorophenoxy)ethyl]-3-propyl-8-(trifluoromethyl)[1,2,4]triazolo[4,3-a]pyridine]	
219	347	CCCCn1ccc(N2CCC3(CC2)OCc2ccccc23)c(Cl)c1=O [Co. No. 32-a]	
	243	O=c1c(Cl)c(N2CCC(OCCF)(c3ccccc3)CC2)ccn1CC1CC1 [Co. No. 20-a]	
	259	O=c1c(Cl)c(N2CCC(c3ccc(F)cc3F)CC2)ccn1CC1CC1 [Co. No. 14-a]	GTPγS-hmGluR2 PAM pEC50: 6.92
316	248	O=c1c(Cl)c(N2CCC(F)(c3ccccc3)CC2)ccn1CCC1CC1 [Co. No. 26-a]	
	203	CC(C)CCn1ccc(N2CCC(F)(c3ccccc3)CC2)c(Cl)c1=O [Co. No. 23-a]	GTPγS-hmGluR2 PAM pEC50: 6.58
	253	O=c1c(Cl)c(N2CCC(c3ccccc3Cl)CC2)ccn1CC1CC1 [Co. No. 15-a]	GTPγS-hmGluR2 PAM pEC50: 7
	261	CC1(C)OC2(CCN(c3ccn4c(CC(F)(F)F)nnc4c3Cl)CC2)c2ccccc21 [Co. No. 12]	
126	278	Fc1cnc(N2CCN(Cc3ccn4c(CC5CC5)nnc4c3C(F)(F)F)CC2)c(F)c1 [Co. No. 13]	
	207	O=c1c(Cl)c(N2CCC(CF)(c3ccccc3)CC2)ccn1CC1CC1 [Co. No. 21-a]	
	240	CC(C)Cn1ccc(N2CCC(c3ccccc3)CC2)c(Cl)c1=O [Co. No. 19-a]	GTPγS-hmGluR2 PAM pEC50: 6.71
575	213	CC(Oc1ccc(F)cc1F)c1ccn2c(CC3CCC3)nnc2c1C(F)(F)F (single isomer, unassigned) [Co. No. 18-b, 3-(Cyclobutylmethyl)-7-[(1*S)-1-(2,4-difluorophenoxy)ethyl]-8-(trifluoromethyl)[1,2,4]triazolo[4,3-a]pyridine]	
1950		CCCc1nnc2c(C(F)(F)F)c(C(C)Oc3ccc(F)cc3F)ccn12 (single isomer, unassigned) [Co. No. 32-b]	GTPγS-hmGluR2 PAM Emax (maximal % effect relative to control glutamate response, listed as 32-b): 116%
288	261	O=c1c(Cl)c(N2CCC(F)(c3ccccc3)CC2)ccn1CC1CC1 [Co. No. 17-a]	
	223	O=c1c(Cl)c(N2CCC(c3cccc(C(F)(F)F)c3)CC2)ccn1CC1CC1 [Co. No. 16-a]	GTPγS-hmGluR2 PAM pEC50: 7.12
214	212	O=c1c(Cl)c(N2CCC(c3ccc(N4CCOCC4)cc3)CC2)ccn1CC1CC1 [Co. No. 13-a]	

— US20250288584A1, “COMBINATIONS COMPRISING POSITIVE ALLOSTERIC MODULATORS OR ORTHOSTERIC AGONISTS OF METABOTROPIC GLUTAMATERGIC RECEPTOR SUBTYPE 2 AND THEIR USE” (JANSSEN PHARMACEUTICA NV, priority 2014, published 2025)
